Data from article PMC6222706, “Evaluation of the Antioxidant and Neuroprotectant Activities of New Asymmetrical 1,3-Diketones” (Molecules : A Journal of Synthetic Chemistry and Natural …, 2018).

How the values were obtained:
[1] = ABTS radical scavenging assay; type: biochemical; details: for IC50: 30 min incubation, EtOH, absorbance at 734 nm; for ABTS-TEAC100: Trolox Equivalent Antioxidant Capacity vs 100 µM solution of the substance, from ABTS assay
Method: ABTS^+ radical was produced by reacting 2,2′-azino-bis-3-ethylbenzthiazoline-6-sulphonic acid (ABTS) 7 mM with K2S2O8 2.45 mM, both reactants dissolved in water, and at the volume ratio of 1:1. The mixture was stored in the dark at room temperature for 16 h. The ABTS^+ solution was diluted to give an absorbance of 0.750 ± 0.025 at 734 nm in EtOH. All the compounds tested were dissolved in EtOH. 150 µL of each compound solution was added to the wells of the 96-well plate, followed by the addition of 50 µL of the ABTS^+ radical solution. Final compound concentrations tested were 0, 5, 10, 20, 50, 100, 150, 200 µM. The absorbance change at 734 nm was recorded after 30 min incubation in the dark, and the percentage of radical scavenging was calculated for each concentration relative to a blank containing no scavenger. The degree of decolorization was calculated as the percentage reduction of absorbance. The ABTS^+ radical scavenging activity was calculated as follows: Percentage ABTS^+ radical scavenging activity = {1 − [As/Ac]} × 100(1) where As is the absorbance of the ABTS^+ radical solution containing samples and Ac the absorbance of the control solution without antioxidant. The percentages of ABTS^+ radical reduced were plotted against compound concentration. Trolox was used as a reference antioxidant. All the assays were carried out three times by quadruplicate for each compound.

[2] = tested on: SH-SY5Y cells; test: Mitochondrial membrane potential by flow cytometry (JC-1) in SH-SY5Y cells under H2O2; type: cell-based, human; details: 7b for 24 h, then 400 µM H2O2 for 4 h, JC-1 flow cytometry
Method: To confirm this MMP recovery results, flow cytometry experiments were carried out with compound 7b and SH-SY5Y cells. Cells were treated with 7b for 24 h and then were exposed to 400 µM H2O2 for 4 h. JC-1 was used as fluorescence indicator of MMP state. In flow cytometry studies of MMP, JC-1 is excited at 488 nm wavelength. Both JC-1 aggregates and monomers show green fluorescence (peak emission at 527 nm) measured in the FL1 channel. […] Thus, healthy non-apoptotic cells are detected in both FL1 and FL2 channels, while cells with disrupted mitochondrial function show fluorescence in FL1 channel but reduced FL2 intensity. […] From these flow cytometry experiments, we can confirm that after compound 7b treatment there is a significant MMP recovery in SH-SY5Y cells under oxidative stress pressure.
For MMP flow cytometry studies, 10^5 SH-SY5Y cells were seeded in 6 well plates. After 24 h, cells were treated with test compound and incubated for other 24 h. After the treatment period, cells were exposed to H2O2 for 4 h. Then, cells were washed twice with Hanks buffer and stained with 5 µM JC-1 in culture media in dark, in a CO2 incubator at 37 °C for 20 min. After the staining period, cells were washed three times with Hanks buffer, collected and resuspended in 500 µL culture media. Data were obtained and analyzed using an Accuri C6 flow cytometer (BD Biosciences, Ann Arbour, MI, USA). […]

IC50 [1] | Structure (SMILES) | ABTS-TEAC100 [1] | FLA-1/FLA-2 ratio [2]
116 ± 11 µM | O=C(/C=C(O)/C=C/c1cc(F)c(O)cc1F)C(F)(F)F [Compound 6b, (3Z,5E)-6-(2,5-difluoro-4-hydroxyphenyl)-1,1,1-trifluoro-4-hydroxyhexa-3,5-dien-2-one] | 0.67 | 
70.9 ± 5.8 µM | O=C(/C=C(O)/C=C/c1ccc(O)c(F)c1F)C(F)(F)F [Compound 7b, (3Z,5E)-6-(2,3-Difluoro-4-hydroxyphenyl)-1,1,1-trifluoro-4-hydroxyhexa-3,5-dien-2-one] | 0.62 | significant reduction of that ratio
